Each structure is given as a SMILES string. Values after ≈ are worked out from the molar mass of the structure shown.

The subject of assay [1] is Mycobacterium tuberculosis. Put plainly: Antimycobacterial activity against Mycobacterium bovis BCG. Format: functional. As to conditions: variant bovis BCG.
Assay [2] has as its system Mycobacterium tuberculosis. Description: Antimycobacterial activity against Mycobacterium bovis BCG assessed as reduction in bacterial growth incubated for 48 hrs by HT-SPOTi assay. Format: functional. As to conditions: variant bovis BCG.

As to `COc1ccc(-n2c(C)cc(CNC3CCCCC3)c2C)cc1`, in assay [1], the MIC (in general, the lowest concentration that inhibits growth of the organism) stood at 0.25 µg/mL (≈ 0.8 µM).

Turning to `Cc1cc(CNCC2CCCCC2)c(C)n1-c1ccc(Cl)cc1`, the MIC in assay [2] came to 1.95 µg/mL (≈ 5.89 µM); in assay [1], 0.125 µg/mL (≈ 0.378 µM).

Take `Cc1ccc(C)c(-n2c(C)cc(CNCc3ccccc3)c2C)c1`: in assay [1], 2 µg/mL (≈ 6.28 µM) was the least that counted as inhibitory (MIC).

As to `Cc1cc(CNC(C)c2ccccc2)c(C)n1-c1ccc(Cl)cc1` (stereo not given), the lowest concentration to inhibit growth in assay [1] (MIC) was 0.5 µg/mL (≈ 1.48 µM).

Molecule `Cc1cc(CNCc2ccccc2)c(C)n1-c1ccc(F)cc1` gave an MIC in assay [1] of 0.5 µg/mL (≈ 1.62 µM).

As to `Cc1cc(CNC2CCCCC2)c(C)n1-c1ccc(F)cc1`, it took 0.5 µg/mL (≈ 1.66 µM) to inhibit growth in assay [1] (MIC).

`Cc1cc(CNC2CCCCC2)c(C)n1-c1ccccc1C(F)(F)F`: in assay [1], it took 2 µg/mL (≈ 5.71 µM) to inhibit growth (MIC).

In the case of `Cc1cc(CN[C@H]2C[C@@H]3CC[C@H]2C3)c(C)n1-c1ccc(Cl)cc1`, in assay [1], the minimal inhibitory concentration (MIC) was found to be 0.25 µg/mL (≈ 0.76 µM).

Regarding `Cc1cc(CNCc2ccccc2)c(C)n1-c1ccccc1C(F)(F)F`, in assay [1], the MIC was found to be 1 µg/mL (≈ 2.79 µM).

For `Cc1cc(CNCc2ccccc2)c(C)n1-c1ccc(C(C)C)cc1`, inhibition of growth in assay [1] (MIC) required 1 µg/mL (≈ 3.01 µM).

Regarding `Cc1cc(CNCc2ccccc2)c(C)n1-c1ccc(Cl)cc1`, in assay [1], the MIC was found to be 0.5 µg/mL (≈ 1.54 µM).

In assay [1], `Cc1cc(CNC2CCCCC2)c(C)n1-c1cc(Cl)cc(Cl)c1` showed an MIC of 0.5 µg/mL (≈ 1.42 µM).

Molecule `Cc1cc(CNCCNc2ccccc2)c(C)n1-c1ccc(Cl)cc1` yielded an MIC in assay [1] of 1 µg/mL (≈ 2.83 µM).

Consider `Cc1ccc(C)c(-n2c(C)cc(CNC3CCCCC3)c2C)c1`, for which it took 0.5 µg/mL (≈ 1.61 µM) to inhibit growth in assay [1] (MIC).

In assay [1], `Cc1cc(CNC2CCCCC2)c(C)n1-c1ccc(C(C)C)cc1` gave an MIC of 0.25 µg/mL (≈ 0.77 µM).

`Cc1cc(CNC2CCCCC2)c(C)n1-c1ccc(C#N)cc1` displayed a minimal inhibitory concentration (MIC) in assay [1] of 1 µg/mL (≈ 3.25 µM).

In assay [1], `Cc1cc(CNC2CCCCC2)c(C)n1-c1ccc(Cl)cc1` gave an MIC of 0.4 µg/mL (≈ 1.26 µM).

Molecule `Cc1cc(CNC2CCCCC2)c(C)n1-c1ccccc1F` had an MIC in assay [1] of 0.5 µg/mL (≈ 1.66 µM).

With `Cc1cc(CNCc2ccccc2)c(C)n1-c1cc(Cl)cc(Cl)c1`, the MIC in assay [1] was determined as 1 µg/mL (≈ 2.78 µM).

For the origin of these results see ChEMBL document CHEMBL4613277, “Improving the Potency of N-Aryl-2,5-dimethylpyrroles against Multidrug-Resistant and Intracellular Mycobacteria” (ACS Med Chem Lett, 2020).
